Experimental data from patent EP4800012A1, “COMPOUND ACTING AS PARP7 INHIBITOR” (Dovetree Medicines Unus, Inc., priority 2023, dated 2025).
pIC50: −log10 of the molar value.

Legend:
PARP7 [1] = molecular target: T1, PARP7 (Homo sapiens, UniProt Q7Z3E1); assay: Inhibition of the compound on PARP7 protein activity (ADP-ribosylation, chemiluminescence); type: biochemical
T1 construct: purchased BPS 80527
T1 sequence (Q7Z3E1 1-657): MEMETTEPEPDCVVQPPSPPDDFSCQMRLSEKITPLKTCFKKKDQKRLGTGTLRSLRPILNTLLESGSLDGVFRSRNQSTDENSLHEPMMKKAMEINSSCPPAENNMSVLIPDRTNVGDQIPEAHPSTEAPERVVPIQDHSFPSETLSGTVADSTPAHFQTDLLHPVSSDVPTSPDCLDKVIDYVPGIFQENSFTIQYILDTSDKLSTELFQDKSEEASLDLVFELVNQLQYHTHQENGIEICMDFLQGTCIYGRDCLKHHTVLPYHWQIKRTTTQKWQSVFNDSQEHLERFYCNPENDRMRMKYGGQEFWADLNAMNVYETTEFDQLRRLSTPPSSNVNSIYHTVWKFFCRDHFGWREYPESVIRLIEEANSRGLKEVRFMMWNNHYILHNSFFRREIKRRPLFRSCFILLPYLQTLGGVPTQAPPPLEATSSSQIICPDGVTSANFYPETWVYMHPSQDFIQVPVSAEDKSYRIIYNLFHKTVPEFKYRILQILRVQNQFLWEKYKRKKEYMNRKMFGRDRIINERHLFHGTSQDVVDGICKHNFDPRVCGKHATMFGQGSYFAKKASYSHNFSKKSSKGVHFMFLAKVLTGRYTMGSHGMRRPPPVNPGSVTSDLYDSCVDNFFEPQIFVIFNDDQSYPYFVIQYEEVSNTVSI

NCI-H1373 cells = assay: Inhibition on NCI-H1373 cell proliferation (Cell-Titer-Glo); type: cell-based; conditions: Homo sapiens, 144 h; NCI-H1373 cells, incubation for 6 days, Cell-Titer-Glo; read-out: NCI-H1373 cell proliferation inhibition IC50
Experimental: The inhibitory effect of the compound on PARP7 was evaluated by testing the inhibitory effect of the compound on NCI-H1373 cell proliferation.
NCI-H1373 cells (ATCC, CRL-5866) were cultured in a complete medium, namely, a RPMI-1640 medium (Gibco, 22400089) containing 10% fetal bovine serum (Corning, 35-081-CV).
Negative control wells and positive control wells were added with 50 nL DMSO (Sigma, D2650), respectively.
In "Day 0" detection plate, NCI-H1373 cells were seeded at a density of 600 cells/well (50 µL) in a complete medium into the Day 0 test wells of a 384-well detection plate (Grenier, 781091). Then, 25 µL of Cell-Titer-Glo reagent (Promega, G7573) was added to each well, followed by centrifugation at 1000 rpm at room temperature for 1 minute and incubation at room temperature under shaded conditions for 10 min. Chemiluminescence signals were collected using an Envision (Perkin Elmer, EnVision 2105) to obtain the average value of the Day 0 test values.
In "compound detection plate", NCI-H1373 cells were seeded at a density of 600 cells/well (50 µL) in a complete medium into the negative control wells and the compound detection wells of a 384-well detection plate (Grenier, 781091), and 50 µL of cell culture medium was added to the positive control wells, followed by centrifugation at 1000 rpm at room temperature for 1 minute and placing in a cell incubator at 37°C, 5% CO2 for incubation for 6 days. […] Chemiluminescence signals were collected using an Envision (Perkin Elmer, EnVision 2105). The test values for each compound well, negative control well, and positive control well were obtained.
The proliferation inhibition ratio formula is as follows: [formula]
The average value of the negative control = the average value of the Day 6 test values of each negative control well minus the average value of the Day 0 test values
The average value of the positive control = the average value of the Day 6 test values of each positive control well
The average value of the compound test = (the Day 6 test value of compound test well 1 + the Day 6 test value of compound test well 2)/2 - the average value of the Day 0 test values

PARP7 [2] = molecular target: T1, PARP7; assay: PARP7 TR-FRET binding inhibition (displacement of probe RBN011147)
Experimental: The ability of the compound to substitute the probe RBN011147 (Wigle et al., 2020, Cell Chemical Biology 27, 877-887) was tested by a TR-FRET method, and IC50 was calculated to evaluate the binding ability of the compound to PARP7. […]

[3] = Histone H1 coated plate, Biotin-Labeled NAD+, 2 h at room temperature, chemiluminescence, read-out: PARP7 activity inhibition IC50
[4] = TR-FRET, Biotin-labeled probe RBN011147, read-out: PARP7 binding inhibition IC50

Structure (SMILES) | pIC50 (PARP7 [1]) | pIC50 (NCI-H1373 cells) | pIC50 (PARP7 [2]) | pIC50 (PARP7 [1]; [3]) | pIC50 (PARP7 [2]; [4]) | pIC50 (PARP7 [1]; read-out: PARP7 activity inhibition IC50, Histone H1 coated plate, Biotin-Labeled NAD+, 2 h at room temperature, chemiluminescence) | pIC50 (PARP7 [2]; read-out: PARP7 binding inhibition IC50, TR-FRET, Biotin-labeled probe RBN011147)
Cc1cc(NC(C)CCCNC(=O)c2cnc(-c3ncc(C(F)(F)F)cn3)cn2)c(C#N)c(=O)[nH]1 (stereo not drawn) [Example 35] | 7.52 to 8.00 | < 5.52 | 7.00 to 7.52 | – | – | – | –
CC(CCCNC(=O)c1cnn(-c2ncc(C(F)(F)F)cn2)c1)Nc1cn[nH]c(=O)c1C(F)(F)F (stereo not drawn) [Example 38] | – | < 5.52 | – | > 8.52 | > 8.00 | – | –
CC(CCCNC(=O)c1cc(-c2ncc(C(F)(F)F)cn2)on1)Nc1cn[nH]c(=O)c1C(F)(F)F (stereo not drawn) [Example 39] | – | 6.00 to 6.52 | – | > 8.52 | > 8.00 | – | –
CCOc1cnc(-c2ccc(C(=O)NCCCC(C)Nc3cn[nH]c(=O)c3C(F)(F)F)cc2)s1 (stereo not drawn) [Example 40] | – | < 5.52 | – | > 8.52 | 7.52 to 8.00 | – | –
CCCc1cnc(-c2ccc(C(=O)NCCCC(C)Nc3cn[nH]c(=O)c3C(F)(F)F)cc2)s1 (stereo not drawn) [Example 41] | – | 6.00 to 6.52 | – | > 8.52 | 7.52 to 8.00 | – | –
CC#Cc1cnc(-c2ccc(C(=O)NCCCC(C)Nc3cn[nH]c(=O)c3C(F)(F)F)cc2)s1 (stereo not drawn) [Example 42] | – | < 5.52 | – | > 8.52 | 7.00 to 7.52 | – | –
CC(CCCNC(=O)c1ccc(-c2ncc(CC3CCCC3)s2)cc1)Nc1cn[nH]c(=O)c1C(F)(F)F (stereo not drawn) [Example 43] | – | > 6.52 | – | > 8.52 | > 8.00 | – | –
CC(CCCNC(=O)c1ccc(-c2ncc(CC3CC3)s2)cc1)Nc1cn[nH]c(=O)c1C(F)(F)F (stereo not drawn) [Example 44] | – | 5.52 to 6.00 | – | > 8.52 | > 8.00 | – | –
CC(CCCNC(=O)c1ccc(-n2cccn2)nc1)Nc1cn[nH]c(=O)c1C(F)(F)F (stereo not drawn) [Example 45] | – | < 5.52 | – | 8.00 to 8.52 | 7.52 to 8.00 | – | –
C[C@@H](CCCNC(=O)c1ccc(-c2nccs2)cn1)Nc1cn[nH]c(=O)c1C(F)(F)F [Example 46] | – | < 5.52 | – | – | – | 7.52 to 8.00 | 7.52 to 8.00
CC(CCCNC(=O)c1ccc(-c2ncn(C)n2)cc1)Nc1cn[nH]c(=O)c1C(F)(F)F (stereo not drawn) [Example 47] | – | < 5.52 | – | 8.00 to 8.52 | 7.52 to 8.00 | – | –
CC(CCCNC(=O)c1ccc(-n2cncn2)c(F)c1)Nc1cn[nH]c(=O)c1C(F)(F)F (stereo not drawn) [Example 48] | – | < 5.52 | – | 7.52 to 8.00 | 7.00 to 7.52 | – | –
CC(CCCN(C)C(=O)c1cnc(-c2ncc(C(F)(F)F)cn2)cn1)Nc1cn[nH]c(=O)c1C(F)(F)F (stereo not drawn) [Example 50] | – | < 5.52 | – | > 8.52 | 7.52 to 8.00 | – | –
CC(CCCNC(=O)c1cnc(-c2ncc(C(F)(F)F)cn2)cn1)Oc1cn[nH]c(=O)c1C(F)(F)F (stereo not drawn) [Example 51] | – | > 6.52 | – | > 8.52 | 7.00 to 7.52 | – | –
CC(CCCNC(=O)c1cnc(-c2ncc(C(F)(F)F)cn2)cn1)Nc1cc[nH]c(=O)c1C#N (stereo not drawn) [Example 52] | – | < 5.52 | – | 7.52 to 8.00 | 7.00 to 7.52 | – | –
Cc1c(CCC(=O)Nc2ccc(-c3ncc(C(F)(F)F)cn3)cc2F)c[nH]c(=O)c1C(F)(F)F [Example 53] | – | < 5.52 | – | 7.52 to 8.00 | 7.00 to 7.52 | – | –
O=C(NCCCC(Nc1cn[nH]c(=O)c1C(F)(F)F)C1CC1)c1cnc(-c2ncc(C(F)(F)F)s2)cn1 (stereo not drawn) [Example 54] | – | < 5.52 | – | 8.00 to 8.52 | 7.52 to 8.00 | – | –
O=C(NCCCC(Nc1cn[nH]c(=O)c1C(F)(F)F)C1CC1)c1ccc(-c2ncc(C(F)(F)F)s2)cc1 (stereo not drawn) [Example 55] | – | 5.52 to 6.00 | – | > 8.52 | > 8.00 | – | –
